Data from patent publication US20240158446A1, “CYCLIC COMPOUND HAVING SELECTIVE INHIBITORY ACTION ON KRAS OVER HRAS AND NRAS” (CHUGAI SEIYAKU KABUSHIKI KAISHA, priority 2021, published 2024).
pIC50, pKd: −log10 of the molar value. Where two headings read alike, the source gives them in different places. Where a SMILES comes first, the peptide text is derived from it. Bridges are numbered along the chain shown (N, C = ends). [ ]: non-standard residue; d: D form. The star is where a group is joined. hPhe(3-Cl-4-CF3) = N[C@@H](CCc1ccc(C(F)(F)F)c(Cl)c1)C(=O)O; NPrPhe(4-CF3) = CCCN[C@@H](Cc1ccc(C(F)(F)F)cc1)C(=O)O; NMeGly(cPent) = CN[C@H](C(=O)O)C1CCCC1; NMeD = CN[C@@H](CC(=O)O)C(=O)O; NMeL = CN[C@@H](CC(C)C)C(=O)O; Morpholide = C1CN(*)CCO1; Ac4c = NC1(C(=O)O)CCC1; NEtG = CCNCC(=O)O; Sar = CNCC(=O)O

Legend:
[1] = target: GDP-bound HRAS wild-type protein (Homo sapiens, UniProt P01112); assay: Binding to HRAS by surface plasmon resonance (SPR), Single Cycle Kinetics; conditions: for HRAS/KRAS (ratio of KD value for HRAS to KD value for KRAS): GDP-bound HRAS wild-type protein vs GDP-bound KRAS wild-type protein
Chain of GDP-bound HRAS wild-type protein (P01112 whole entry): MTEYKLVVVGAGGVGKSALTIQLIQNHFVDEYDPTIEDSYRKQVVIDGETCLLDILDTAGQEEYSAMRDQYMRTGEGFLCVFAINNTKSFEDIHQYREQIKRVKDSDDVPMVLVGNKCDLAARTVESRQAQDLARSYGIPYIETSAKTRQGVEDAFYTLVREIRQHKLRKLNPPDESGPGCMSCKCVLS

[2] = tested on: human lung cancer strain NCI-H441;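 also: cell proliferation inhibition after four days measured by CellTiter-Glo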
[3] = target: GDP-bound KRAS wild-type protein (Homo sapiens, UniProt P01116); assay: Binding to KRAS by surface plasmon resonance (SPR), Single Cycle Kinetics
Chain of GDP-bound KRAS wild-type protein (P01116 whole entry): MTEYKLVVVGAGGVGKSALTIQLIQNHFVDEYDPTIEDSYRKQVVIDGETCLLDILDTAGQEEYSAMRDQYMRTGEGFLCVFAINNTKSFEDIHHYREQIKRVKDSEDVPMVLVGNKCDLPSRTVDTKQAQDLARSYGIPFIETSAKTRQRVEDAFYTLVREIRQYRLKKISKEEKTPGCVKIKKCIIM

[4] = target: GDP-bound NRAS wild-type protein (Homo sapiens, UniProt P01111); assay: Binding to NRAS by surface plasmon resonance (SPR), Single Cycle Kinetics; conditions: for NRAS/KRAS (ratio of KD value for NRAS to KD value for KRAS): GDP-bound NRAS wild-type protein vs GDP-bound KRAS wild-type protein
Chain of GDP-bound NRAS wild-type protein (P01111 whole entry): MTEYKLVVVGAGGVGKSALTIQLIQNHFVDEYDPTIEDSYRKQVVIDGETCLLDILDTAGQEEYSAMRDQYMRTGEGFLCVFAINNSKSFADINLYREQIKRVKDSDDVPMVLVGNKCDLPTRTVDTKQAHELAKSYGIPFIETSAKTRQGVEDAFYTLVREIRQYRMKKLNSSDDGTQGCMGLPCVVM

[5] = SPR, Single Cycle Kinetics, GDP-bound KRAS wild-type protein, read-out: KRAS KD
[6] = SPR, Single Cycle Kinetics, 1:1 binding model, GDP-bound KRAS wild-type protein, read-out: KRAS KD
[7] = SPR Single Cycle Kinetics, GDP-bound KRAS wild-type protein, 1:1 binding model, read-out: KRAS KD

Structure (SMILES)	HRAS/KRAS (ratio of KD value for HRAS to KD value for KRAS) ([1]; SPR)	pIC50 [2]	pKd [3, 5]	NRAS/KRAS (ratio of KD value for NRAS to KD value for KRAS) ([4]; SPR)	further results
CCCOC[C@H]1C(=O)N[C@@H]([C@@H](C)CC)C(=O)N(C2CC2)CC(=O)N(C)[C@H]2C/C=C\CCN(C2=O)[C@@H](Cc2ccc(C)cc2)C(=O)N(C)CC(=O)N[C@@H](CCc2ccc(C(F)(F)F)c(OC)c2)C(=O)N2C[C@@H](C)C[C@H]2C(=O)N(C)C2(CCC2)C(=O)N(C)[C@@H](C2CCCC2)C(=O)N(C)[C@H](C(=O)N(C)C)CC(=O)N1C [PP2367]	B (a compound having 3 or more and less than 10 is denoted as B)	8.68	10.12	A (a compound having 10 or more and less than 20 is denoted as A)	
CC[C@H](C)[C@@H]1NC(=O)[C@H](CC)N(C)C(=O)C[C@@H](C(=O)N(C)C)N(C)C(=O)[C@H](C2CCCC2)N(C)C(=O)C2(CCC2)NC(=O)[C@H](COCCC(C)C)N(C)C(=O)[C@H](CCc2cc(F)c(C(F)(F)F)c(F)c2)NC(=O)CN(C)C(=O)[C@H](Cc2ccc(C(F)(F)F)cc2)N2CC/C=C\C[C@@H](C2=O)N(C)C(=O)CN(C)C1=O [PP1148]	A (a compound having 10 or more and less than 20 is denoted as A)	6.45	8.92	A (a compound having 10 or more and less than 20 is denoted as A)	
CCO[C@@H]1C[C@H]2C(=O)NC3(CCC3)C(=O)N(C)[C@@H](C3CCCC3)C(=O)N(C)[C@H](C(=O)N(C)C)CC(=O)N(C)[C@@H](CC3CCC3)C(=O)N[C@@H]([C@@H](C)CC)C(=O)N(C)CC(=O)N(C)[C@H]3C/C=C\CCN(C3=O)[C@@H](CC3CCC(F)(F)CC3)C(=O)N(C)CC(=O)N[C@@H](CCc3cc(F)c(C(F)(F)F)c(F)c3)C(=O)N2C1 [PP1455, (2S,8S,12R,14S,20S,23S,27S,30S,36S,38Z)-27-(cyclobutylmethyl)-20-cyclopentyl-2-[(4,4-difluorocyclohexyl)methyl]-8-[2-[3,5-difluoro-4-(trifluoromethyl)phenyl]ethyl]-12-ethoxy-N,N,4,19,22,26,32,35-octamethyl-30-[(1S)-1-methylpropyl]-3,6,9,15,18,21,25,28,31,34,42-undecaoxo-spiro[1,4,7,10,16,19,22,26,29,32,35-undecazatricyclo[34.5.1.0^10,14]dotetracont-38-ene-17,1′-cyclobutane]-23-carboxamide]		7.87			HRAS/KRAS (ratio of KD value for HRAS to KD value for KRAS) ([1]; SPR, KD ratio class): A (a compound having 10 or more and less than 20 is denoted as A); pKd [3, 6]: 9.96; NRAS/KRAS (ratio of KD value for NRAS to KD value for KRAS) ([4]; SPR, KD ratio class): A (a compound having 10 or more and less than 20 is denoted as A)
CCC[C@H]1C(=O)N[C@@H]([C@@H](C)CC)C(=O)N(C2CC2)CC(=O)N(C)[C@H]2C/C=C\CCN(C2=O)[C@@H](Cc2ccc(C(F)(F)F)cc2)C(=O)N(C)CC(=O)N[C@@H](CCc2cc(F)c(C(F)(F)F)c(F)c2)C(=O)N2C[C@H](OCC)C[C@H]2C(=O)N(C)C2(CCC2)C(=O)N(C)[C@@H](C2CCCC2)C(=O)N(C)[C@H](C(=O)N2CCCC2)CC(=O)N1C [PP3112]	B (a compound having 3 or more and less than 10 is denoted as B)		8.51	A (a compound having 10 or more and less than 20 is denoted as A)	ratio of the KD value with respect to GDP-bound HRAS wild-type protein to the KD value with respect to KRAS ([1]; SPR, KD(HRAS)/KD(KRAS)): B (a compound having 3 or more and less than 10 is denoted as B); pIC50 ([2]; read-out: NCI-H441 cell proliferation inhibitory activity, 50% proliferation inhibitory concentration (IC50 value), NCI-H441, four days, CellTiter-Glo): 7.49; pKd ([3]; SPR, Single Cycle Kinetics, 1:1 binding model, read-out: KD value with respect to GDP-bound KRAS wild-type protein): 8.51; ratio of the KD value with respect to GDP-bound NRAS wild-type protein to the KD value with respect to KRAS ([4]; SPR, KD(NRAS)/KD(KRAS)): A (a compound having 10 or more and less than 20 is denoted as A)
CCOC[C@H]1C(=O)N[C@@H]([C@@H](C)CC)C(=O)N(C)CC(=O)N(C)[C@H]2C/C=C\CCN(C2=O)[C@@H](CC2CCC(F)(F)CC2)C(=O)N(C)CC(=O)N[C@@H](CCc2ccc(C(F)(F)F)c(OC)c2)C(=O)N2C[C@H](OCC)C[C@H]2C(=O)NC2(CC(C)(C)C2)C(=O)N(C)[C@@H](C(CC)CC)C(=O)N(C)[C@H](C(=O)N(C)C)CC(=O)N1C [PP2446]	A (a compound having 10 or more and less than 20 is denoted as A)	6.91	9.09	A (a compound having 10 or more and less than 20 is denoted as A)	
CCO[C@@H]1C[C@H]2C(=O)NC3(CC(C)(C)C3)C(=O)N(C)[C@@H](CC(C)(C)C)C(=O)N(C)[C@H](C(=O)N(C)C)CC(=O)N(C)[C@@H](COC)C(=O)N[C@@H]([C@@H](C)CC)C(=O)N(C3CC3)CC(=O)N(C)[C@H]3C/C=C\CCN(C3=O)[C@@H](Cc3ccc(C(F)(F)F)cc3)C(=O)N(C)CC(=O)N[C@@H](CCc3ccc(C(F)(F)F)c(OC)c3)C(=O)N2C1 [PP2748]		8.15			HRAS/KRAS (ratio of KD value with respect to GDP-bound HRAS wild-type protein to KD value with respect to KRAS) ([1]; SPR KD ratio HRAS/KRAS, class symbols): A (a compound having 10 or more and less than 20 is denoted as A); pKd [3, 7]: 9.70; NRAS/KRAS (ratio of KD value with respect to GDP-bound NRAS wild-type protein to KD value with respect to KRAS) ([4]; SPR KD ratio NRAS/KRAS, class symbols): A (a compound having 10 or more and less than 20 is denoted as A)
CCC[C@H]1C(=O)N[C@@H]([C@@H](C)CC)C(=O)N(C)CC(=O)N(C)[C@H]2C/C=C\CCN(C2=O)[C@@H](CC2CCC(F)(F)CC2)C(=O)N(C)CC(=O)N[C@@H](CCc2ccc(C(F)(F)F)c(Cl)c2)C(=O)N2C[C@H](OCC)C[C@H]2C(=O)NC2(CC(C)(C)C2)C(=O)N(C)[C@@H](C(CC)CC)C(=O)N(C)[C@H](C(=O)N(C)C)CC(=O)N1C [PP2498]	A (a compound having 10 or more and less than 20 is denoted as A)	7.66	9.17	A (a compound having 10 or more and less than 20 is denoted as A)	
CCCOC[C@H]1C(=O)N[C@@H]([C@@H](C)CC)C(=O)N(C)CC(=O)N(C)[C@H]2C/C=C\CCN(C2=O)[C@@H](CC2CCC(F)(F)CC2)C(=O)N(C)CC(=O)N[C@@H](CCc2ccc(C(F)(F)F)c(OC)c2)C(=O)N2C[C@H](OCC)C[C@H]2C(=O)NC2(CC(C)(C)C2)C(=O)N(C)[C@@H](C(CC)CC)C(=O)N(C)[C@H](C(=O)N(C)C)CC(=O)N1C [PP2464]	A (a compound having 10 or more and less than 20 is denoted as A)	7.18	9.01	A (a compound having 10 or more and less than 20 is denoted as A)	
CCCOC[C@H]1C(=O)N[C@@H]([C@@H](C)CC)C(=O)N2CCC[C@H]2C(=O)N(C)[C@H]2C/C=C\CCN(C2=O)[C@@H](CC2CCC(F)(F)CC2)C(=O)N(C)CC(=O)N[C@@H](CCc2ccc(C(F)(F)F)c(OC)c2)C(=O)N2C[C@H](OCC)C[C@H]2C(=O)N(C)C2(CCC2)C(=O)N(C)[C@@H](C2CCCC2)C(=O)N(C)[C@H](C(=O)N(C)C)CC(=O)N1C [PP2357]	B (a compound having 3 or more and less than 10 is denoted as B)	7.22	8.92	A (a compound having 10 or more and less than 20 is denoted as A)	
CCO[C@@H]1C[C@H]2C(=O)NC3(CCC3)C(=O)N(C)[C@@H](C3CCCC3)C(=O)N(C)[C@H](C(=O)N(C)C)CC(=O)N(C)[C@@H](CC3CC3)C(=O)N[C@@H]([C@@H](C)CC)C(=O)N(C)CC(=O)N(C)[C@H]3C/C=C\CCN(C3=O)[C@@H](CC3CCCCC3)C(=O)N(C)CC(=O)N[C@@H](CCc3cc(F)c(C(F)(F)F)c(F)c3)C(=O)N2C1 [PP1446]		7.49			HRAS/KRAS (ratio of KD value for HRAS to KD value for KRAS) ([1]; SPR, KD ratio class): A (a compound having 10 or more and less than 20 is denoted as A); pKd [3, 6]: 9.70; NRAS/KRAS (ratio of KD value for NRAS to KD value for KRAS) ([4]; SPR, KD ratio class): A (a compound having 10 or more and less than 20 is denoted as A)
CCCN1C(=O)CN(C)C(=O)CN(CC)C(=O)[C@H]([C@@H](C)CC)NC(=O)[C@H](CC(C)C)N(C)C(=O)C[C@@H](C(=O)N2CCOCC2)N(C)C(=O)[C@H](C2CCCC2)N(C)C(=O)C2(CCC2)NC(=O)[C@@H]2CCCN2C(=O)[C@H](CCc2ccc(C(F)(F)F)c(Cl)c2)NC(=O)CN(C)C(=O)[C@@H]1Cc1ccc(C(F)(F)F)cc1 [PP0398] ([NMeL]I[NEtG][Sar][NPrPhe(4-CF3)][Sar][hPhe(3-Cl-4-CF3)]P[Ac4c][NMeGly(cPent)][NMeD]-Morpholide; lactam N-11)	C (A compound having a KD ratio of 0.1 or more and less than 3 is denoted as C)	8.44		B (a compound having 3 or more and less than 10 is denoted as B)	pKd [3, 7]: 9.32
